# Assay results taken from article PMC7481357, “N-terminal Myristoylation Enhanced the Antimicrobial Activity of Antimicrobial Peptide PMAP-36PW” (Frontiers in Cellular and Infection Microbiology, 2020).
# Residues, ends and D or L forms follow the SMILES beside them. *: point of attachment. Myristoyl = CCCCCCCCCCCCCC(=O)*
# Columns and labels:
# P. aeruginosa GIM 1.551 [1] = assay: Pneumonia (lung infection) model; format: in vivo, BALB/c mice; conditions: intranasal 40 μL, 1 μg/μL, once a day for 3 days
# Protocol: A pneumonia model in vivo was established as previously reported, with minor modification (Cortés et al., [2002]; Aoki et al., [2009]; Shi et al., [2018]). A total of 120 mice were randomly divided into two experimental models, one was intranasal inoculation of S. aureus ATCC 25923 (8.3 × 10^9 CFU/mL, 50 μL), and the other was intranasal inoculation of P. aeruginosa GIM 1.551 (4.5 × 10^10 CFU/mL, 50 μL). In the S. aureus ATCC 25923 model, 60 mice were divided into the following six groups of 10 mice each: no infection and treatment was used as a blank control, those with intranasal administration of PBS (40 μL) as the negative control group, those administered with benzylpenicillin potassium (40 μL, 1 μg/μL) as the positive control group, and the remaining three corresponded to Myr-36PW (40 μL, 1 μg/μL), PMAP-36PW (40 μL, 1 μg/μL), and PMAP-36 groups (40 μL, 1 μg/μL). The procedure for P. aeruginosa GIM 1.551 model is the same as for S. aureus ATCC 25923 model, except for the use of ampicillin sodium as the positive control. After 4 h post-inoculation, treatment was initiated, once a day for 3 days. The mice were sacrificed 24 h after the treatment. Changes in the appearance of lung tissues were observed, and lung tissues were removed aseptically from the mice. Half of the removed lung tissues were gently fixed in buffered formaldehyde solution for histopathological assessment by hematoxylin and eosin (H&E) staining. Pathological changes were scored to provide individual therapeutic status as described previously (Lei et al., [2018]). The remaining lung tissues were added with 1 mL of PBS, homogenized, and serially diluted. Bacterial CFU counts were determined.
# Figure 8 Therapeutic effect for pneumonia by Myr-36PW in vivo. Mice were injected with S. aureus ATCC 25923 or P. aeruginosa GIM 1.551 to form pneumonia, and lungs (n = 5) in each group were collected on day 4 after intranasal bacterial inoculation. (A) Morphological changes of lung tissues. (B) Representative histopathological images of processed lung section with hematoxylin and eosin (H&E) staining. Images are presented at a magnification of 20×. a: inflammatory cell infiltration. b: the alveolar wall is thickened. c: alveolar wall congestion or alveolar hemorrhage. (C,D) Pathological scores of the lung sections. Scoring standard: 1 indicated no pathology, 2 indicated local pulmonary congestion and inflammatory cell infiltration, 3 indicated pulmonary congestion and a large number of inflammatory cell infiltration, affecting <20% of the section, 4 indicated pulmonary congestion and a large number of inflammatory cell infiltration, affecting 20–50% of the section, and 5 indicated pulmonary congestion and a large number of inflammatory cell infiltration, affecting >50% of the section. (E,F) Bacterial CFU in lung homogenate. BP is benzylpenicillin potassium, AS is ampicillin sodium. Data represent the mean ± SD of five individual experiments.
# P. aeruginosa GIM 1.551 [2] = format: cell-based, Pseudomonas aeruginosa; conditions: GIM 1.551, 1 h
# Protocol: The effects of abiotic factors on the antibacterial activity of Myr-36PW were investigated by MIC assay (Xi et al., [2013]; Zhong et al., [2019]). S. aureus ATCC 25923 and P. aeruginosa GIM 1.551 overnight cultures were diluted to 1 × 10^6 CFU/mL, and the MICs of peptides in MHB with different concentration of physiological salts (150 mM NaCL, 2 mM CaCL2) were determined. And after the peptides incubated in 10% mice serum for 1 h at 37°C, MICs of peptides against S. aureus ATCC 25923 and P. aeruginosa GIM 1.551 were determined. The MICs in MHB in the absence of physiological salts and serum were used as the control group.
# Salt and serum stability in vitro were indicated by MIC assay. The concentrations of NaCl and CaCl2 were physiological concentration. 10% mice serum was inactivated by heat treatment for 15 min at 60 ℃。The control group was measured in the absence of physiological salts or serum in MHB.
# [3] = test system: S. aureus ATCC 25923 and P. aeruginosa GIM 1.551; assay: pH stability testing (pH 2-13, then inhibition zone assay); format: cell-based, Staphylococcus aureus; Pseudomonas aeruginosa; conditions: for pH range of stable antimicrobial activity: peptides treated at pH 2–13, inhibition zone, 10 μg, n = 5
# Protocol: For stability test, the Myr-36PW and peptides were treated with pH 2–13, and PBS buffer with different pH values was used as a control (Wang et al., [2019]). Inhibition zone assay was performed against S. aureus ATCC 25923 and P. aeruginosa GIM 1.551. The inhibition zone diameters of peptides (10 μg, 1 μg/μL) were measured after incubation for 18 h at 37°C, and the inhibition curve was drawn.
# Figure 4 PH stability determination of Myr-36PW. PH stability test was performed using Myr-36PW and its analogs treated with different pH levels (2–13) through disk diffusion method. (A) (S. aureus ATCC 25923) and (B) (P. aeruginosa GIM 1.551) show the pH stability curve of PMAP-36, PMAP-36PW, and Myr-36PW. The diameter of the standard disk is 6 mm. Data represent the mean ± SD (n = 5).
compound,measurement,setting,value
CCCCCCCCCCCCCC(=O)NCC(=O)NCC(=O)N[C@@H](CCCNC(=N)N)C(=O)N[C@@H](Cc1ccccc1)C(=O)N[C@@H](CCCNC(=N)N)C(=O)N[C@@H](CCCNC(=N)N)C(=O)N[C@@H](CC(C)C)C(=O)N[C@@H](CCCNC(=N)N)C(=O)N[C@@H](CCCCN)C(=O)N[C@@H](CCCCN)C(=O)N[C@H](C(=O)N[C@@H](CCCNC(=N)N)C(=O)N[C@@H](CCCCN)C(=O)N[C@@H](CCCNC(=N)N)C(=O)N[C@@H](CC(C)C)C(=O)N[C@@H](CCCCN)C(=O)N[C@@H](CCCCN)C(=O)N[C@H](C(=O)NCC(=O)N[C@@H](CCCCN)C(=O)N[C@H](C(=O)N[C@@H](CC(C)C)C(=O)N[C@@H](CCCCN)C(=O)N[C@@H](Cc1c[nH]c2ccccc12)C(=O)N[C@H](C(=O)N[C@@H](Cc1c[nH]c2ccccc12)C(=O)N[C@@H](Cc1c[nH]c2ccccc12)C(=O)N[C@H](C(=O)N[C@H](C(=O)NCC(=O)N[C@@H](CO)C(=O)N[C@H](C(=O)N1CCC[C@H]1C(=O)N[C@@H](CC(C)C)C(=O)NCC(=O)N[C@@H](CS)C(=O)NCC(=O)O)[C@@H](C)CC)C(C)C)[C@@H](C)CC)[C@@H](C)CC)C(C)C)[C@@H](C)CC)[C@@H](C)O [Myr-36PW] (Myristoyl-GGRFRRLRKKTRKRLKKIGKVLKWIWWIVGSIPLGCG-OH; C-terminus assumed),Lung histopathology (H&E),P. aeruginosa GIM 1.551 [1],"a complete alveolar structure, reduced blood stasis, and large reduction in inflammatory cells"
same,Bacterial CFU in lung homogenate,P. aeruginosa GIM 1.551 [1]; n = 5,decreased the P. aeruginosa GIM 1.551 CFU level compared with the PMAP-36PW group (P < 0.05)
same,Pathological scores of the lung sections,P. aeruginosa GIM 1.551 [1]; n = 5,lower scores than PMAP-36PW group (P < 0.05)
same,"MICs, CaCl2",P. aeruginosa GIM 1.551 [2],0.5 µg/mL
same,"MICs, Control",P. aeruginosa GIM 1.551 [2],0.25 µg/mL
same,"MICs, NaCl",P. aeruginosa GIM 1.551 [2],0.25 µg/mL
same,"MICs, Serum",P. aeruginosa GIM 1.551 [2],0.5 µg/mL
same,pH range of stable antimicrobial activity,[3]; against P. aeruginosa GIM 1.551,5–11 pH
same,pH range of stable antimicrobial activity,[3]; against S. aureus ATCC 25923,5–9 pH
same,Antimicrobial activity at pH 2,"[3]; inhibition zone, 10 μg peptide",higher than that of PMAP-36PW
same,Antimicrobial activity at pH 13,"[3]; inhibition zone, 10 μg peptide",disappeared
